Where two headings read alike, the source gives them in different places.
Columns and labels:
[1] = Murine cytotoxicity by MTT method; assay type: cell-based; conditions: mouse; murine peritoneal macrophages, MTT; read-out: murine macrophage CC50 ± SD
Description: (§1) Murine cytotoxicity was assessed by the 3-(4,5-dimethylthiazol-2-yl)-2,5-diphenyltetrazolium bromide (MTT) method using murine peritoneal macrophages to determine the CC50. For this purpose, murine peritoneal macrophages were maintained in RPMI 1640 medium at 37 °C and 5% CO2, arranged in 96-well plates at a ratio of […], where the compounds to be evaluated were added at concentrations of 500, 250, 125, 62.5, 31.25, 15.625, 7.8125, and 3.90 μg mL^–1 and incubated for 24, 48, and 72 h. After incubation, 10 μL of MTT (at a concentration of 5 mg mL^–1) was added per well, with a further 4 h incubation. The cells were lysed with dimethyl sulfoxide (DMSO) and evaluated in a Shimadzu UV/vis spectrophotometer (double beam, model 2550) at 570 nm to determine the CC50 compared to the control without the addition of compounds or drugs. , The optical density obtained was then converted to the percentage of inhibition using eq so that the CC50 could then be determined by regression analysis of the data. %inhibition=[(DOcontrol−DOcompound)/DOcontrol]×100 1
(§2) The percentage of viable cells was calculated considering the cell culture control (medium + cells + DMSO = 0.6% v/v).

[2] = tested on: promastigote forms of L. amazonensis; test: Leishmanicidal activity against promastigote forms of L. amazonensis (resazurin); assay type: cell-based, Leishmania amazonensis; conditions: L. amazonensis promastigotes, 72 h, read-out: IC50 ± SD promastigote
Description: Promastigotes of L. amazonensis (MHOM/BR/71973/M2269) were grown on 24-well plates in Schneider’s Drosophila medium (Sigma, USA) supplemented with 10.0% (v/v) heat-inactivated fetal bovine serum and 1.0% penicillin (10000 UI mL^–1)/streptomycin (10.0 mg mL^–1) (Sigma, USA). Cells were harvested in the log phase, suspended in a fresh medium, counted in Neubauer’s chamber, and adjusted to a concentration of 1 × 10^6 cells mL^–1 using 24-well plates. The compounds were added to promastigote cultures (1 × 10^6 cells mL^–1) in the range of 0.10–40.00 μg mL^–1, solubilized in dimethyl sulfoxide (DMSO) (0.6%, v/v in all wells), and incubated at 25 °C. After 72 h of incubation, resazurin was used to detect cellular metabolic activity for the determination of 50.0% inhibitory growth concentration (IC50-promastigote). All tests were performed in triplicate at three different times, and amphotericin B (Sigma) was used as the reference drug.

[3] = tested on: amastigote forms of L. amazonensis; test: Leishmanicidal activity against intracellular amastigote forms of L. amazonensis in murine peritoneal macrophages; assay type: cell-based; conditions: Leishmania amazonensis, Peritoneal macrophage; intracellular amastigotes in murine peritoneal macrophages, 72 h, Giemsa; read-out: IC50 ± SD amastigote
Description: To evaluate the leishmanicidal activity in amastigotes, murine peritoneal macrophages were used and maintained in RPMI-1640 medium at 37 °C and 5% CO2 in 24-well plates. After 24 h, the nonadherent macrophages were removed, and these cells were infected with Leishmania (L.) amazonensis promastigotes in the stationary phase of the proliferation curve at a ratio of 10:1. The day after infection, the noninternalized parasites were removed, and the compounds to be evaluated were added at concentrations of 40, 10, 5, and 0.1 μg mL^–1 and incubated for 72 h at 37 °C and 5% CO2; they were then fixed in methanol and stained with 10% Giemsa (MERCK) for subsequent analysis by light microscopy. To assess the effect of the compounds, the number of amastigotes/macrophages and the number of infected macrophages were evaluated. The percentage of infected cells was considered to illustrate the results since these are expressed as CI50-amastigote. ,

[4] = Cytotoxicity on human fibroblast culture (sulforodamine B (SRB) test); assay type: cell-based; conditions: read-out: human fibroblasts CC50 ± SD
[5] = tested on: murine peritoneal macrophages; test: Murine cytotoxicity by MTT method; assay type: cell-based
Description: as §1, §2

Row | Molecule | CC50 [1] | IC50 ([2]; Leishmania amazonensis) | IC50 [3] | CC50 [4] | CC50 [5] | IC50 [2]
1 | O=[N+]([O-])c1ccc(-c2cn(CC(O)Cn3cc(-c4ccc([N+](=O)[O-])cc4)nn3)nn2)cc1 [8b, 1,3-Bis(4-(4-nitrophenyl)-1H-1,2,3-triazol-1-yl)propan-2-ol] | 305 ± 7.84 µM | 48.4 ± 1.3 µM | – | – | – | –
2 | Cc1ccc(-c2cn(CC(O)Cn3cc(-c4ccc(C)cc4)nn3)nn2)cc1 [8c, 1,3-Bis(4-(p-tolyl)-1H-1,2,3-triazol-1-yl)propan-2-ol] | 282.2 ± 1.65 µM | 116 ± 2.61 µM | – | – | – | –
3 | OC(Cn1cc(C(=NNc2nc3ccccc3s2)c2ccccc2)nn1)Cn1cc(C(=NNc2nc3ccccc3s2)c2ccccc2)nn1 (centres unmarked) [12c, 1,3-Bis(4-((2-(benzo[d]thiazol-2-yl)hydrazineylidene)(phenyl)methyl)-1H-1,2,3-triazol-1-yl)propan-2-ol] | 51.3 ± 8.57 µM | 19.2 ± 1.4 µM | – | – | – | –
4 | C[C@@H]1[C@H](O)[C@@H](C)/C=C/C=C/C=C/C=C/C=C/C=C/C=C/[C@H](O[C@@H]2O[C@H](C)[C@@H](O)[C@H](N)[C@@H]2O)C[C@@H]2O[C@](O)(C[C@@H](O)C[C@@H](O)[C@H](O)CC[C@@H](O)C[C@@H](O)CC(=O)O[C@H]1C)C[C@H](O)[C@H]2C(=O)O [amph B, amphotericin B, reference compound] | 27.1 ± 3.19 µM | 1.4 ± 0.04 µM | 1.9 ± 0.07 µM | 22.95 ± 0.1 µM | – | –
5 | OC(c1ccccc1)c1cn(Cc2ccccc2)nn1 (centres unmarked) [compound 4] | 322 ± 10.4 µM | 42.8 ± 2.66 µM | – | – | – | –
6 | OC(Cn1cc(C(O)c2ccccc2)nn1)Cn1cc(C(O)c2ccccc2)nn1 (centres unmarked) [compound 9, ((2-Hydroxypropane-1,3-diyl)bis(1H-1,2,3-triazole-1,4-diyl))bis(phenylmethanol)] | 144.3 ± 0.94 µM | 62.3 ± 3.29 µM | – | – | – | –
7 | O=C(c1ccccc1)c1cn(CC(O)Cn2cc(C(=O)c3ccccc3)nn2)nn1 [compound 10, ((2-Hydroxypropane-1,3-diyl)bis(1H-1,2,3-triazole-1,4-diyl))bis(phenylmethanone)] | 383.9 ± 3.21 µM | 44.1 ± 2.36 µM | 68.4 ± 2.61 µM | 568.1 ± 2.58 µM | – | –
8 | N′,N‴-(((2-Hydroxypropane-1,3-diyl)bis(1H-1,2,3-triazole-1,4-diyl))bis(phenylmethaneylylidene))di(benzohydrazide) [12b] | – | – | – | – | 118 ± 17.1 µM | 34.46 ± 0.28 µM

Source: PMC12242654, “Design, Synthesis, and In Vitro Evaluation of the Leishmanicidal Activity of New Aromatic Symmetrical 1,4-Disubstituted 1,2,3-Bistriazoles” (ACS Omega, 2025)
